Test results taken from patent US20100016335A1, “NOVEL AMINOPYRIDINE DERIVATIVES HAVING AURORA A SELECTIVE INHIBITORY ACTION” (priority 2006, published 2010).
Structures can show the parent of a compound that is named as a salt. Where two headings read alike, the source gives them in different places.

Tests used:
human Aurora A = molecular target: T1, human Aurora A (Homo sapiens, UniProt O14965); assay: Aurora A inhibitory activity (IMAP fluorescence polarization phosphorylation assay); format: biochemical; settings: 20 μM ATP, 30° C., 120 minutes
T1 construct: His (N); made in house; host or cells: Escherichia coli BL21-CodonPlus(DE3)-RIL
T1 sequence (O14965 1-403): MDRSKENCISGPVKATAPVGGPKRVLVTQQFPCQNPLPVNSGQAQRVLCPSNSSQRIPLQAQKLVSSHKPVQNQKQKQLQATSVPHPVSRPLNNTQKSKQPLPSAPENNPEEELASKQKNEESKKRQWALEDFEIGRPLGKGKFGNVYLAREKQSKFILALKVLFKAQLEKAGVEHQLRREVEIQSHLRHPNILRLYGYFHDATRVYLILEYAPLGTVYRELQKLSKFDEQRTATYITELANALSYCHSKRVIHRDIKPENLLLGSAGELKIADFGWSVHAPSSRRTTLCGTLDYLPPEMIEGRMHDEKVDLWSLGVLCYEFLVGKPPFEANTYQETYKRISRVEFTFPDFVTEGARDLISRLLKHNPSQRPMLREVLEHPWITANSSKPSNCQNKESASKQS

[1] = molecular target: T2, GST-tagged human Aurora B(AurB)/His-tagged human INCENP complex proteins (Homo sapiens, UniProt Q96GD4); assay: Aurora B inhibitory activity (Method A, IMAP assay kit); format: biochemical; settings: 40 μM ATP, 25° C., 45 minutes
T2 construct: GST; purchased Carna Biosciences, Inc

[2] = tested on: Human cervical cancer cells (HeLa S3); assay: Cell growth inhibitory effect, WST-8 method; format: cell-based; settings: HeLa S3, three days incubation, read-out: Cell growth inhibitory effect (HeLaS3) (IC50)
Procedure: Fetal calf serum (FCS) was purchased from Moregate Biotech, and DMEM medium was purchased from Invitrogen Corp. WST-8 was purchased from Kishida Chemical Co., Ltd.
(§1) Human cervical cancer cells (HeLa S3) were obtained from the American Type Culture Collection (ATCC).
Cells were suspended in a DMEM medium containing 10% FCS, and the cell suspension was dispensed to a 96-well plastic plate at a rate of 750 cells/100 microliters per well. The plate was incubated overnight in 5% CO2-95% air at 37° C. A drug was subjected to graded dilution in dimethylsulfoxide and further diluted with a DMEM medium containing 10% FCS. Then, the dilution was dispensed to the plate on which cells had been disseminated in advance, at a rate of 100 microliters per well. The plate was incubated for further three days in 5% CO2-95% air at 37° C. Cell growth after incubation was measured by the WST-8 method (H. Tominaga, et al., Anal. Commun., 36, 47-50 (1999)). Here, the WST-8 method refers to a method in which 20 microliters of a WST-8 reagent solution is added to each well, incubation is conducted at 37° C. for 60 minutes, the plate is stirred, and the amount of formazan produced is measured by a […] method to determine the inhibitory rate of the drug.

[3] = tested on: Human cervical cancer cells (HeLa S3); assay: Effect by combined use of drugs in cells (docetaxel), WST-8 method; format: cell-based; settings: HeLa S3, three days; for inhibition at 1 µM: compound 1.0 μM alone
Procedure: Fetal calf serum (FCS) was purchased from Moregate Biotech, DMEM medium from Invitrogen Corp., docetaxel (tradename: Taxere) from Sigma-Aldrich, Inc., and WST-8 from Kishida Chemical Co., Ltd.
as §1
Cells were suspended in a DMEM medium containing 10% FCS, and the cell suspension was dispensed to two 96-well plastic plates at a rate of 750 cells/100 microliters per well. The plates were incubated overnight in 5% CO2-95% air at 37° C. A drug was subjected to graded dilution in dimethylsulfoxide and further diluted with DMSO or with a DMEM medium containing 10% FCS and also containing 0.6 nM docetaxel. Then, the dilutions were each dispensed to one of the plates on which cells had been disseminated in advance, at a rate of 100 microliters per well. The final concentration of docetaxel at this stage was 0.3 nM. Also, the concentrations in the case of sole administration of the compound according to the invention were 0.003, 0.01, 0.03, 0.1, 0.3, 1, 3 and 10 μM. The plates were incubated for further three days in 5% CO2-95% air at 37° C. Cell growth after incubation was measured by the WST-8 method (H. Tominaga, et al., Anal. Commun., 36, 47-50 (1999)). Here, the WST-8 method refers to a method in which 20 microliters of a WST-8 reagent solution is added to each well, incubation is conducted at 37° C. for 60 minutes, the plate is stirred, and the amount of formazan produced is measured by a colorimetric method to determine the inhibitory rate of the drug. The growth inhibitory effects of docetaxel and of the compound according to the invention were determined, with the value obtained in sole treatment of DMSO being defined as 0%.

[4] = Homo sapiens, HeLa S3, 72 h, compound 0.1 μM alone, read-out: Cell growth inhibitory effect by sole administration of the compound of Example (%)
[5] = Homo sapiens, HeLa S3, 72 h, compound 0.3 μM alone, read-out: Cell growth inhibitory effect by sole administration of the compound of Example (%)
[6] = compound 0.1 μM + docetaxel 0.3 nM
[7] = compound 0.3 μM + docetaxel 0.3 nM
[8] = Homo sapiens, HeLa S3, 72 h, read-out: Cell growth inhibitory effect by sole administration of the compound of Example (%)
[9] = compound 1.0 μM + docetaxel 0.3 nM

T2 sequence (Q96GD4 whole entry): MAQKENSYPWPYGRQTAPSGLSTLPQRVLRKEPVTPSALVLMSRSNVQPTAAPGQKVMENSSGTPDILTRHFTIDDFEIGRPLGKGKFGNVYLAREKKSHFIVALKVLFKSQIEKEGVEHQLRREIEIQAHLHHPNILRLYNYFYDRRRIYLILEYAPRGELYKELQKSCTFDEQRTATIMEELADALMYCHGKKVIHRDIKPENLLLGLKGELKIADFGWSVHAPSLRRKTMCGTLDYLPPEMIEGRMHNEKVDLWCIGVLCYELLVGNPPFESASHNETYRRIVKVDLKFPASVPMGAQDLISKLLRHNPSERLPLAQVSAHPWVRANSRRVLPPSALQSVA
T2 sequence (Q9NQS7 803-916 partner limits assumed): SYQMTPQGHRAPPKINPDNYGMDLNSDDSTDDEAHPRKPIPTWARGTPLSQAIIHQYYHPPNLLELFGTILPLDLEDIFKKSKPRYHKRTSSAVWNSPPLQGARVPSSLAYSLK

Compound	IC50 (human Aurora A)	IC50 [1]	IC50 ([2]; Homo sapiens, 72 h)	inhibition at 0.1 µM [3, 4]	inhibition at 0.3 µM [3, 5]	Cell growth inhibitory effect by combined administration of docetaxel and the compound of Example (%) [3, 6]	Cell growth inhibitory effect by combined administration of docetaxel and the compound of Example (%) [3, 7]	inhibition at 1 µM [3, 8]	Cell growth inhibitory effect by combined administration of docetaxel and the compound of Example (%) [3, 9]	inhibition at 0.03 µM ([3]; Homo sapiens, HeLa S3, 72 h, compound 0.03 μM alone, read-out: Cell growth inhibitory effect by sole administration of the compound of Example (%))	Cell growth inhibitory effect by combined administration of docetaxel and the compound of Example (%) ([3]; compound 0.03 μM + docetaxel 0.3 nM)	IC50 [2]	Cell growth inhibitory effect by sole administration of the compound of Example (%) ([3]; compound 0.1 μM alone)	Cell growth inhibitory effect by sole administration of the compound of Example (%) ([3]; compound 0.3 μM alone)	inhibition at 3 µM ([3]; Homo sapiens, HeLa S3, 72 h, compound 3.0 μM alone, read-out: Cell growth inhibitory effect by sole administration of the compound of Example (%))	Cell growth inhibitory effect by combined administration of docetaxel and the compound of Example (%) ([3]; compound 3.0 μM + docetaxel 0.3 nM)
O=c1[nH]nc([C@]2(Cc3cccc(Nc4cc[nH]n4)n3)CC[C@@H](Oc3cccc(Cl)c3F)CC2)o1 [Example 23, 5-(trans-4-(3-chloro-2-fluorophenoxy)-1-((6-(1H-pyrazol-3-ylamino)pyridin-2-yl)methyl)cyclohexyl)-1,3,4-oxadiazol-2(3H)-one]	0.39 nM	490 nM	760 nM	3.7%	36%	71.5%	87.4%	–	–	–	–	–	–	–	–	–
O=C(O)[C@]1(Cc2cccc(Nc3nccs3)n2)CC[C@@H](Sc2cccc(Cl)c2Cl)CC1 [Example 30, trans-4-((2,3-dichlorophenyl)thio)-1-((6-(1,3-thiazol-2-ylamino)pyridin-2-yl)methyl)cyclohexanecarboxylic acid trifluoroacetate]	0.08 nM	39 nM	340 nM	28.3%	53.4%	81.2%	92.0%	–	–	–	–	–	–	–	–	–
NC(=O)[C@]1(Cc2cccc(Nc3cc[nH]n3)n2)CC[C@@H](Oc2cccc(Cl)c2F)CC1 [Example 11, trans-4-(3-chloro-2-fluorophenoxy)-1-((6-(1H-pyrazol-3-ylamino)pyridin-2-yl)methyl)cyclohexanecarboxamide]	1.8 nM	750 nM	2800 nM	–	15.1%	–	72.1%	25.4%	84.5%	–	–	–	–	–	–	–
CONC(=O)[C@]1(Cc2cccc(Nc3nccs3)n2)CC[C@@H](Oc2cccc(Cl)c2F)CC1 [Example 18, trans-4-(3-chloro-2-fluorophenoxy)-N-methoxy-1-((6-(1,3-thiazol-2-ylamino)pyridin-2-yl)methyl)cyclohexanecarboxamide]	0.49 nM	200 nM	900 nM	7.4%	21.3%	61.5%	77.4%	–	–	–	–	–	–	–	–	–
O=c1[nH]nc([C@]2(Cc3cccc(Nc4cc[nH]n4)n3)CC[C@@H](Oc3cccc(C(F)(F)F)c3F)CC2)o1 [Example 20, 5-(trans-4-(2-fluoro-3-(trifluoromethyl)phenoxy)-1-((6-(1H-pyrazol-3-ylamino)pyridin-2-yl)methyl)cyclohexyl)-1,3,4-oxadiazol-2(3H)-one]	1 nM	660 nM	900 nM	–	25.9%	–	85.0%	49.8%	94.4%	–	–	–	–	–	–	–
O=c1[nH]nc([C@]2(Cc3cccc(Nc4cc[nH]n4)n3)CC[C@@H]([S+]([O-])c3cccc(Cl)c3Cl)CC2)o1 (stereo partly drawn) [Example 35, 5-(trans-4-((2,3-dichlorophenyl)sulfinyl)-1-((6-(1H-pyrazol-3-ylamino)pyridin-2-yl)methyl)cyclohexyl)-1,3,4-oxadiazol-2(3H)-one trifluoroacetate]	0.31 nM	120 nM	220 nM	42.7%	–	89.9%	–	–	–	25.1%	78.0%	–	–	–	–	–
Cl.O=C(O)[C@]1(Cc2cccc(Nc3nccs3)n2)CC[C@@H](Oc2cccc(Cl)c2Cl)CC1 [Example 6, trans-4-(2,3-dichlorophenoxy)-1-((6-(1,3-thiazol-2-ylamino)pyridin-2-yl)methyl)cyclohexanecarboxylic acid hydrochloride]	0.07 nM	37 nM	1930 nM	–	7.2%	–	70.0%	25.6%	87.0%	–	–	–	–	–	–	–
O=C(O)[C@]1(Cc2cccc(Nc3nccs3)n2)CC[C@@H](S(=O)(=O)c2cccc(Cl)c2Cl)CC1 [Example 32, trans-4-((2,3-dichlorophenyl)sulfonyl)-1-((6-(1,3-thiazol-2-ylamino)pyridin-2-yl)methyl)cyclohexanecarboxylic acid trifluoroacetate]	0.15 nM	70 nM	590 nM	6.3%	40.8%	88.6%	94.0%	–	–	–	–	–	–	–	–	–
5-(trans-4-(3-chloro-2-fluorophenoxy)-1-((6-(1H-pyrazol-3-ylamino)pyrazin-2-yl)methyl)cyclohexyl)-1,3,4-oxadiazol-2(3H)-one [Example 29]	0.19 nM	670 nM	–	–	–	79.0%	92.9%	–	–	–	–	670 nM	11.3%	39.9%	–	–
O=C(O)[C@]1(Cc2cccc(Nc3nccs3)n2)CC[C@@H]([S+]([O-])c2cccc(Cl)c2Cl)CC1 (stereo partly drawn) [Example 31, trans-4-((2,3-dichlorophenyl)sulfinyl)-1-((6-(1,3-thiazol-2-ylamino)pyridin-2-yl)methyl)cyclohexanecarboxylic acid trifluoroacetate]	0.19 nM	53 nM	5890 nM	–	–	–	–	1%	75.1%	–	–	–	–	–	38.5%	89.0%
